This note sets out measurements from paper PMC5190074, “BET inhibition as a new strategy for the treatment of gastric cancer” (Oncotarget, 2016).

One assay addresses T1, FALZ (Homo sapiens, UniProt Q12830).
T1 construct: gene BPTF; bromodomain
In words: biochemical. Further details: thermal shift assay (real-time PCR machine), melting temperature shift of recombinant bromodomains at 2 uM protein. Here is the method: (§1) The recombinant bromodomains at 2 μM were mixed with 10 μM inhibitors. The assays and data evaluation for melting temperatures were performed using a Real-Time PCR Mx3005p machine (Stratagene) and the protocols previously described. Experiments profiling the final compound (PNZ5) were performed in quadruplicates. […] Since its discovery in our own labs, similar inhibitors have also been disclosed by researchers at Boehringer Ingelheim [reference: patent, WO 2014/154760 [31]]. The inhibitor contains two possible acetyl-lysine mimetic moieties. In order to obtain molecular insights on the interaction of the developed inhibitor, the crystal structure of the first bromodomain of BRD4 in complex with PNZ5 was solved at 1.85 Å (Figure 2C and Supplementary Table 4, 5FBX.pdb). The inhibitor, coordinating residues and water molecules were well defined by the electron density. The dimethylisoxazole moiety mimicked the acetyl lysine side chain and formed two canonical hydrogen-bond interactions with Asn140 and water mediated hydrogen-bond with Tyr 97 (Figure 2C). The common network of waters within the binding site was also conserved in the BRD4(1)-PNZ5 complex. The compound was further stabilized by lipophilic interactions with residues forming the binding site Leu92, Leu94, Ile146. The [compound left out] substituent was well accommodated next to the WPF shelf, as well as the N1-methyl substituent that formed hydrophobic interactions with Trp81. The carbonyl on the isoindolinone established a water-mediated hydrogen bond with Lys91.

For assay [1], the target named is T2, BRD4(1), first bromodomain of BRD4 (Homo sapiens, UniProt O60885).
T2 construct: first bromodomain; BRD4_HUMAN O60884-1 fragment 44-168 (crystallography)
The assay is described as follows: biochemical. Also noted: thermal shift assay (real-time PCR machine), melting temperature shift of recombinant bromodomains at 2 uM protein. Here is the method: as §1

Another assay deals with T3, GCN5L2 (Homo sapiens, UniProt Q92830).
T3 construct: gene KAT2A; bromodomain
In words: biochemical. Also noted: thermal shift assay (real-time PCR machine), melting temperature shift of recombinant bromodomains at 2 uM protein. Here is the method: as §1

The next assay deals with T4, CECR2 (Homo sapiens, UniProt Q9BXF3).
T4 construct: bromodomain
In words: biochemical. Also noted: thermal shift assay (real-time PCR machine), melting temperature shift of recombinant bromodomains at 2 uM protein. Here is the method:
as §1

A further assay has as its target T5, PB1(2) (Homo sapiens, UniProt Q86U86).
T5 construct: gene PBRM1; bromodomain 2
The assay is described as follows: biochemical. Also noted: thermal shift assay (real-time PCR machine), melting temperature shift of recombinant bromodomains at 2 uM protein. Here is the method: as §1

For another assay, the target named is T6, SP140L (Homo sapiens, UniProt Q9H930).
T6 construct: bromodomain
In words: biochemical. Also noted: thermal shift assay (real-time PCR machine), melting temperature shift of recombinant bromodomains at 2 uM protein. Here is the method:
as §1

In the next assay the target is T7, PB1(6) (Homo sapiens, UniProt Q86U86).
T7 construct: gene PBRM1; bromodomain 6
In words: biochemical. Further details: thermal shift assay (real-time PCR machine), melting temperature shift of recombinant bromodomains at 2 uM protein. Here is the method: as §1

A further assay has as its target T8, BRD2(1) (Homo sapiens, UniProt P25440).
T8 construct: bromodomain 1
In words: biochemical. Further details: thermal shift assay (real-time PCR machine), melting temperature shift of recombinant bromodomains at 2 uM protein. Here is the method:
as §1

Assay [2] has as its target T2, BRD4(1), first bromodomain of BRD4. In words: biochemical. The settings on record: read-out: ΔTm Shift (oC). Further details: thermal shift assay, SAR of isoxazole compounds against BRD4(1). Here is the method: The recombinant bromodomains at 2 μM were mixed with 10 μM inhibitors. The assays and data evaluation for melting temperatures were performed using a Real-Time PCR Mx3005p machine (Stratagene) and the protocols previously described. Experiments profiling the final compound (PNZ5) were performed in quadruplicates. Isoxazoles have been explored previously as BET bromodomain inhibitors. We have developed PNZ5, a new isoxazole-based inhibitor originating from the lead compound S1 (Figure 1). PNZ5 was developed as the result of a structure-based lead optimisation program. Dihydroindene S1 was identified as a ligand against BRD4(1) (pIC50 5.9). Investigation of the co-crystal structure of S1 with BRD4(1) [PDB ID 4GPJ] identified a number of positions for potential optimisation: addition of a carbonyl group at C-3 was envisaged to benefit from hydrogen-bonds (H-bonds) to a network of conserved water molecules; replacement of C-2 with a nitrogen would minimise interactions in the narrow ZA channel of BRD4(1) and N-substitution could provide further binding interactions with the protein; and alternative substitution of the hydroxyl at C-1 would provide a handle for further optimisation. […] The three best compounds, S3, S5 and S7, were destined to be separated into their component enantiomers for further evaluation (Supplementary Table 2). […]

Assay [3] has the same target. The assay is described as follows: ITC; co-crystal structure at […] Å. The assay is classed as binding.

Molecules are shown by their SMILES. pKd: −log10 of the molar value. Where two headings read alike, the source gives them in different places.

T8 sequence (P25440 whole entry): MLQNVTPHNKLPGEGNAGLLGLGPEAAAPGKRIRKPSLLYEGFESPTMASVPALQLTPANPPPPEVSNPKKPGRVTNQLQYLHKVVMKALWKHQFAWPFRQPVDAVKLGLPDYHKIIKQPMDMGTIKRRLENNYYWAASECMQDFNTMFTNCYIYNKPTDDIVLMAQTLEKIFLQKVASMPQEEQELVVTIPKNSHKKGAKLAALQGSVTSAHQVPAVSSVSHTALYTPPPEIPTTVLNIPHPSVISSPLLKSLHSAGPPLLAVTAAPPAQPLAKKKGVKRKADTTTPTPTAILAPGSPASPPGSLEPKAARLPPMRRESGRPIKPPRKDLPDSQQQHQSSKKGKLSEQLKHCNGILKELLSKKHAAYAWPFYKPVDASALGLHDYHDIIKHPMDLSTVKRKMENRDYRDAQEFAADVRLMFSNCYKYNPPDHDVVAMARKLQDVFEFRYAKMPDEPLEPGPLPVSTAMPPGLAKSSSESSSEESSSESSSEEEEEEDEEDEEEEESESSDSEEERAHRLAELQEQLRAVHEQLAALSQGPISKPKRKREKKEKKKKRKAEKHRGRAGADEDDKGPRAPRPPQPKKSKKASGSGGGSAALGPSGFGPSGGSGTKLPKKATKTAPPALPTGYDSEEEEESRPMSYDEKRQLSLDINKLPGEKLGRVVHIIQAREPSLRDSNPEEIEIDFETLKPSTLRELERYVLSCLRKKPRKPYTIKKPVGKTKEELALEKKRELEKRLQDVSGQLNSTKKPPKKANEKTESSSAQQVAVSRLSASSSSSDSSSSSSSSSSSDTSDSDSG
T4 sequence (Q9BXF3 whole entry): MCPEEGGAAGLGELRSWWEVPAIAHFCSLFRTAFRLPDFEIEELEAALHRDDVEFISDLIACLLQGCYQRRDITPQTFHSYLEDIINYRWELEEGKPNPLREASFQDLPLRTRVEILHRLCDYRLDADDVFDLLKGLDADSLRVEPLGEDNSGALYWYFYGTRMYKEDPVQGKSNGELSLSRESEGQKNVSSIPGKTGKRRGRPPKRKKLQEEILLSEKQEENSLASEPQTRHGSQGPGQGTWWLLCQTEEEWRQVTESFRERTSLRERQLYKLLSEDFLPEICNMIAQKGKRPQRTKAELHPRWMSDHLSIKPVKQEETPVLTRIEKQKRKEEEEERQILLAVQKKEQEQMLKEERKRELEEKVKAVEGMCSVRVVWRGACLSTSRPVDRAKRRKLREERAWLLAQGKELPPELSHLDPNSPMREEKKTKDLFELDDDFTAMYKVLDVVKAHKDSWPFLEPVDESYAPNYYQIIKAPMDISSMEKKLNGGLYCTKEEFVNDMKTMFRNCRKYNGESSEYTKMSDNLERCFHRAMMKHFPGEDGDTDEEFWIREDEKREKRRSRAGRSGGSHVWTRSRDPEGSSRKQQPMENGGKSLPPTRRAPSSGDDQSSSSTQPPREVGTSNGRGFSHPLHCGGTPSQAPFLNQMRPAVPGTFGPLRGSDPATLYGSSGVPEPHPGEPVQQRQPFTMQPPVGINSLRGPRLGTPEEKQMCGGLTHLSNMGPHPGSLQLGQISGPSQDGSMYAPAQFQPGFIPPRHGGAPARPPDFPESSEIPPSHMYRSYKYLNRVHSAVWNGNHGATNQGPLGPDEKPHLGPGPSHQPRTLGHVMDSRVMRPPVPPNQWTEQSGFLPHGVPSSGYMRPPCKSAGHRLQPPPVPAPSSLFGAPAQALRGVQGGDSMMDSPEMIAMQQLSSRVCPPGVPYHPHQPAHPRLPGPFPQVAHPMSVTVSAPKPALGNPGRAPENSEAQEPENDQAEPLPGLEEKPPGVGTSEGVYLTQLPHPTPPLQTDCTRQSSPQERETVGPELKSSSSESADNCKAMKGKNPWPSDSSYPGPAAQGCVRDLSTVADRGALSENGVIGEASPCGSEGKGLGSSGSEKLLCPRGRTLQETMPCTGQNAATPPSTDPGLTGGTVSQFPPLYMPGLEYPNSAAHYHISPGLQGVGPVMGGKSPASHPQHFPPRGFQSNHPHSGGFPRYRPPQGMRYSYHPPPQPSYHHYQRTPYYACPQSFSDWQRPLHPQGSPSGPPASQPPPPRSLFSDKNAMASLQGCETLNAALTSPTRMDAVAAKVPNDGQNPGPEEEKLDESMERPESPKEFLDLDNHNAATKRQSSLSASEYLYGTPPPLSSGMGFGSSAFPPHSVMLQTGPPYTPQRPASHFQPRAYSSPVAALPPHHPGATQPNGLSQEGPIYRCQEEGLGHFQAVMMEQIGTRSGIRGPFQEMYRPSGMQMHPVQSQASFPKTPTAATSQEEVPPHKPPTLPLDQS
T7 sequence (Q86U86 whole entry): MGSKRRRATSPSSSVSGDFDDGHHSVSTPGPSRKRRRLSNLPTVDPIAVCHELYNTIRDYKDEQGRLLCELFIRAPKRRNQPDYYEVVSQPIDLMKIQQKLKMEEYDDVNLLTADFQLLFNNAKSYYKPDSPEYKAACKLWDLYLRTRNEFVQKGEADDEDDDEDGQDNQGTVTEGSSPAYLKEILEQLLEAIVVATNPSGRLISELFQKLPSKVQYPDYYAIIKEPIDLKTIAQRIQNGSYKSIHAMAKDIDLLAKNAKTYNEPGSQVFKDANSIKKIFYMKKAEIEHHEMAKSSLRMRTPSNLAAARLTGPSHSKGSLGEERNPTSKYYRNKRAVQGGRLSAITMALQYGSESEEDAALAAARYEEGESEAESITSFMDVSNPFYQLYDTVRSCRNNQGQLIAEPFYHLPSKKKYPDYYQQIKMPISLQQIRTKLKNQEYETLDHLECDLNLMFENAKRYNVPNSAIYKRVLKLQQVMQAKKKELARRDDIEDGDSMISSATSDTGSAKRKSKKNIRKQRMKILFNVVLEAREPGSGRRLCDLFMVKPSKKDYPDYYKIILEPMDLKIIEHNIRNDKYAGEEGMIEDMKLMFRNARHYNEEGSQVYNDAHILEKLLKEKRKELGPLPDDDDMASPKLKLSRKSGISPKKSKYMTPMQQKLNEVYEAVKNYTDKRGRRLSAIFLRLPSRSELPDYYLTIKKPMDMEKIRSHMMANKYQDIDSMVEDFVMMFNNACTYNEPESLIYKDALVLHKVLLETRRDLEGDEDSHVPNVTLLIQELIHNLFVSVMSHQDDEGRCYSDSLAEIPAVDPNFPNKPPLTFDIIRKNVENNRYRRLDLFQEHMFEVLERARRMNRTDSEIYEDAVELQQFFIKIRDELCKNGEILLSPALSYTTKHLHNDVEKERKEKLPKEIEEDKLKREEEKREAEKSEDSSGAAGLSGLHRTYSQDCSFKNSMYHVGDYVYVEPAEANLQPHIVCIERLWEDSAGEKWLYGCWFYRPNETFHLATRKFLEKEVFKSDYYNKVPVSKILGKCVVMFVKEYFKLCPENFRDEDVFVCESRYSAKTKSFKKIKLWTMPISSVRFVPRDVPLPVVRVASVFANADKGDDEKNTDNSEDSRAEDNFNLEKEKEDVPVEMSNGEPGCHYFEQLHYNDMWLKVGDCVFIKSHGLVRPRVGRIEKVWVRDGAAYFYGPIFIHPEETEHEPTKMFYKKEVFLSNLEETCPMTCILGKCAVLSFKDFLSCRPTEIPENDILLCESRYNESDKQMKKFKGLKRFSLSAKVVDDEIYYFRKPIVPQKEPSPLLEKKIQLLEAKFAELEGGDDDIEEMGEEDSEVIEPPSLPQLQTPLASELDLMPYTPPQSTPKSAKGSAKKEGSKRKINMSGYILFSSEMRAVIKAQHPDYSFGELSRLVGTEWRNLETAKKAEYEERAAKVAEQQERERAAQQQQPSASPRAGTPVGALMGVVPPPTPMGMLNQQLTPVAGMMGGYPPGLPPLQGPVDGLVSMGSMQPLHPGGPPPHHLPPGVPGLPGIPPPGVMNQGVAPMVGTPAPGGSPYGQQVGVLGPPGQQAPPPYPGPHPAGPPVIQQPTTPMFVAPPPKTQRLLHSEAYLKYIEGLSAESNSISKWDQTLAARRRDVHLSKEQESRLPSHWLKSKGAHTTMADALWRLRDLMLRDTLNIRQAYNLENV
T6 sequence (Q9H930 whole entry): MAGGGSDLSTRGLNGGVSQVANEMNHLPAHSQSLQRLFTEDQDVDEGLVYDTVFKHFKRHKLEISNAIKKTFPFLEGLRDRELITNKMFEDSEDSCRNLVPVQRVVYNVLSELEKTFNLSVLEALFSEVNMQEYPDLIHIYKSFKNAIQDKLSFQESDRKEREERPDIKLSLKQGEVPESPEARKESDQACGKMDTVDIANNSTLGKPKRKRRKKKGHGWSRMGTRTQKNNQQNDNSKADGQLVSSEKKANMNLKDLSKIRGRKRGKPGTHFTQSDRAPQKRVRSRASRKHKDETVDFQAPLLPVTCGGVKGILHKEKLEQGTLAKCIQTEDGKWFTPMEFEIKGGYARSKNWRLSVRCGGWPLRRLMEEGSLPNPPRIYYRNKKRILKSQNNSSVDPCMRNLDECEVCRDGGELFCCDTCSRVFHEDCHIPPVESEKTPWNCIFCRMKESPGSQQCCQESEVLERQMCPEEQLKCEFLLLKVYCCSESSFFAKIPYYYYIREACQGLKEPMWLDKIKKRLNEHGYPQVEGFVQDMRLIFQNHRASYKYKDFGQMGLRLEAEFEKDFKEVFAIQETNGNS

In the case of `Cc1noc(C)c1-c1ccc2c(c1)[C@H](c1ccccc1)N(C)C2=O` [PNZ5], the ΔTm at 10 µM at FALZ worked out at 0.22 °C; in assay [1] it was 10.1 °C; on GCN5L2 it was 0.25 °C; on CECR2, 0.19 °C; at PB1(2), 0.27 °C; on SP140L, 1.05 °C. The ΔTm at 10 µM at PB1(6) turned out to be 0.26 °C; on BRD2(1), 7.94 °C; in assay [2] it was 11.4 °C. In assay [3], this compound had a pKd of 8.27.
